Reference: patent US11608335B2, “Somatostatin modulators and uses thereof” (CRINETICS PHARMACEUTICALS, INC., priority 2018, dated 2023)
Read-outs that look alike come from different tables or passages of the source.

Key:
[1] = biological target: human somatostatin receptor subtype 5 (Homo sapiens, UniProt P35346); test: cAMP assay for SST5R (inhibition of cAMP via human SST5 receptor); settings: for Fold selectivity for SST5 vs SST2: SST5 over SST2, class symbols
Experimental: cAMP Assay Protocol for SST5R:
The cells are cultured at 37° C., 5% CO2 and 95% humidity. […] The cells are incubated for 20 minutes at 37° C. […] The cells are treated with 50 μL of lysis buffer (HRTF cAMP kit, Cisbio) for 30 minutes and then the lysate is diluted to 250 μL with assay buffer. The lysate is transferred to 384-well plates and cAMP detection and visualization antibodies are added and incubated for 1-24 hours at room temperature. The time-resolved fluorescent signal is read with a Tecan M1000Pro multiplate reader. The intracellular cAMP concentrations are calculated by regression to a standard curve and are plotted vs. the concentration of the compounds of the invention and the EC50 of the compounds are calculated using standard methods. All data manipulations are in GraphPad Prism v6 or v7.

[2] = biological target: T1, human somatostatin receptor subtype 4 (Homo sapiens, UniProt P31391); test: cAMP assay for hSST4R (inhibition of cAMP via human SST4 receptor); assay type: cell-based; settings: from inhibition of cAMP via human SST5 receptor and human SST4 receptor
T1 construct: expressed in transfected cells
Excerpt: cAMP Assay Protocol hSST4R:

[3] = biological target: T2, human somatostatin receptor subtype 2 (Homo sapiens, UniProt P30874); test: cAMP assay for SST2R (inhibition of cAMP via human SST2 receptor); assay type: cell-based; settings: Table B, read-out: SST2 potency
T2 construct: expressed in transfected cells
Excerpt: cAMP Assay Protocol for SST2R:

[4] = biological target: T3, human somatostatin receptor subtype 3 (Homo sapiens, UniProt P32745); test: cAMP assay for SST3R (inhibition of cAMP via human SST3 receptor); assay type: cell-based; settings: from inhibition of cAMP via human SST5 receptor and human SST3 receptor
T3 construct: expressed in transfected cells
Excerpt: cAMP Assay Protocol for SST3R:

[5] = read-out: SST5 potency, inhibition of cAMP via human SST5 receptor, Table B

T1 sequence (P31391 whole entry): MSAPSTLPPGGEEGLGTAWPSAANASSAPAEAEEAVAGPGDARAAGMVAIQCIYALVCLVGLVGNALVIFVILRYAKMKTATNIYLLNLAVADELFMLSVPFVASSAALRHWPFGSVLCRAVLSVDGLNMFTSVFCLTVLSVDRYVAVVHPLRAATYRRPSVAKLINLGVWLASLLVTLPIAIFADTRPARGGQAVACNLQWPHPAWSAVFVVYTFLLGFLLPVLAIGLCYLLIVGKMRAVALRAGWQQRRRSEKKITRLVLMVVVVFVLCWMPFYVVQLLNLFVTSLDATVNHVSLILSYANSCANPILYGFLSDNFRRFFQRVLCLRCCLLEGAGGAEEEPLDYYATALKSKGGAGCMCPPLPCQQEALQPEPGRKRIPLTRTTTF
T3 sequence (P32745 whole entry): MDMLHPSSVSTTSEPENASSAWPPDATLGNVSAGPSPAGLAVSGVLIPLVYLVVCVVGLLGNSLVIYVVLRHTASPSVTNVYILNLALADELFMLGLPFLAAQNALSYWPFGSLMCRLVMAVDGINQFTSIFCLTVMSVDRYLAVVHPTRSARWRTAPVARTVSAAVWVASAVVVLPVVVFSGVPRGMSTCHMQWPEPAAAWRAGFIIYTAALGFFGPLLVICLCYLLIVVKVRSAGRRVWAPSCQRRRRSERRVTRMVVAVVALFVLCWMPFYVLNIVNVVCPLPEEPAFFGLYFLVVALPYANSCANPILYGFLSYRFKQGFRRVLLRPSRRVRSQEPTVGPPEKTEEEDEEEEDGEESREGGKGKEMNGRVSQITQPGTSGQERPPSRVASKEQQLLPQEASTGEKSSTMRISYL
Chain of human somatostatin receptor subtype 5 (P35346 whole entry): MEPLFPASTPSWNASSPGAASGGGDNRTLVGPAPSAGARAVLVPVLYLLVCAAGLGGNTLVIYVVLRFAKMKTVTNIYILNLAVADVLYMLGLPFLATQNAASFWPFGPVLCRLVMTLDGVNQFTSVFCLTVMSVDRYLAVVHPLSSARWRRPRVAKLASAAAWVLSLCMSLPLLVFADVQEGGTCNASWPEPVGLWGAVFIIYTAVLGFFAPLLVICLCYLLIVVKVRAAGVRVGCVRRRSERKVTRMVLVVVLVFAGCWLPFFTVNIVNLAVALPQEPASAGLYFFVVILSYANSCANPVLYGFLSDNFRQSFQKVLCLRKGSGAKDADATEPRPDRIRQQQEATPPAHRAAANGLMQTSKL
T2 sequence (P30874 whole entry): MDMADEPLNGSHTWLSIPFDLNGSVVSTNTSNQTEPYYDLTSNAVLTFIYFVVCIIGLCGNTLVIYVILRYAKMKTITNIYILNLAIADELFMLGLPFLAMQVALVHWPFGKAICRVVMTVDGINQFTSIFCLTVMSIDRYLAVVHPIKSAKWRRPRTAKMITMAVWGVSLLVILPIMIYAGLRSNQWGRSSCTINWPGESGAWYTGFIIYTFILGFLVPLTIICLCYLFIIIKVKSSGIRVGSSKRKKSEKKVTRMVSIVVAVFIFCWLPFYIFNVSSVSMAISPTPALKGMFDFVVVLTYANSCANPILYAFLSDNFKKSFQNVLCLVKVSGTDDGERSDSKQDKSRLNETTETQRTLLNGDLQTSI

EC50 [1] [nM]	Fold selectivity for SST5 vs SST4 [2] [fold]	Fold selectivity for SST5 vs SST2 [1]	EC50 [1, 5] [nM]	EC50 [3] [nM]	Fold selectivity for SST5 vs SST3 [4] [fold]	SMILES
100 to 1000	8.8	–	–	–	–	NCC1CN(c2c(-c3ccc4ccccc4c3)cncc2-c2nc3cc(F)cc(F)c3[nH]2)C1 [Compound 1-41, 1-{1-[3-(4,6-difluoro-1H-1,3-benzodiazol-2-yl)-5-(naphthalen-2-yl)pyridin-4-yl]azetidin-3-yl}methanamine]
< 10	812	+++ (+++=≥500)	< 10	> 1000	200	CCC(N)C1CN(c2c(-c3cc(C)cc(F)c3)cncc2-c2nc3cc(F)cc(F)c3[nH]2)C1 (stereo not drawn) [Compound 1-51, 1-{1-[3-(4,6-difluoro-1H-1,3-benzodiazol-2-yl)-5-(3-fluoro-5-methylphenyl)pyridin-4-yl]azetidin-3-y}propan-1-amine]
< 10	384	+++ (+++=≥500)	< 10	100 to 1000	>1000	CC(N)C1CN(c2c(-c3ccc(F)c(C#N)c3)cncc2-c2nc3cc(F)cc(F)c3[nH]2)C1 (stereo not drawn) [Compound 1-65, 5-{4-[3-(1-aminoethyl)azetidin-1-yl]-5-(4,6-difluoro-1H-1,3-benzodiazol-2-yl)pyridin-3-yl}-2-fluorobenzonitrile]
< 10	18	+++ (+++=≥500)	< 10	100 to 1000	43	Cc1ccc(F)c2[nH]c(-c3cncc(-c4cc(F)cc(C#N)c4)c3N3CC[C@H](N)C3)nc12 [Compound 2-63, 3-{4-[(3S)-3-aminopyrrolidin-1-yl]-5-(7-fluoro-4-methyl-1H-1,3-benzodiazol-2-yl)pyridin-3-yl}-5-fluorobenzonitrile]
< 10	11	+++ (+++=≥500)	< 10	100 to 1000	42	Cc1ccc(F)c2nc(-c3cncc(-c4cccc(C#N)c4)c3N3CC[C@H](N)C3)[nH]c12 [Compound 2-101, 3-{4-[(3S)-3-aminopyrrolidin-1-yl]-5-(7-fluoro-4-methyl-1H-1,3-benzodiazol-2-yl)pyridin-3-yl}benzonitrile]
< 10	63	+++ (+++=≥500)	< 10	100 to 1000	–	Cc1cccc2nc(-c3cncc(-c4ccnc(C#N)c4)c3N3CC[C@](C)(N)C3)[nH]c12 [Compound 2-145, 4-[(3S)-3-amino-3-methylpyrrolidin-1-yl]-5-(4-methyl-1H-1,3-benzodiazol-2-yl)-[3,4′-bipyridine]-2′-carbonitrile]
< 10	323	–	–	–	–	Cc1c(F)ccc2nc(-c3cncc(-c4ccnc(C#N)c4)c3N3CC[C@](C)(N)C3)[nH]c12 [Compound 2-164, 4-[(3S)-3-amino-3-methylpyrrolidin-1-yl]-5-(5-fluoro-4-methyl-1H-1,3-benzodiazol-2-yl)-[3,4′-bipyridine]-2′-carbonitrile]
< 10	56	++ (++=100 to 499)	< 10	100 to 1000	–	Cc1ccnc2[nH]c(-c3cncc(-c4cc(F)c(F)c(C#N)c4)c3N3CC[C@](C)(N)C3)nc12 [Compound 2-165, 5-{4-[(3S)-3-amino-3-methylpyrrolidin-1-yl]-5-{7-methyl-1H-imidazo[4,5-b]pyridin-2-yl}pyridin-3-yl}-2,3-difluorobenzonitrile]
< 10	18	+++ (+++=≥500)	< 10	100 to 1000	183	C[C@]1(N)CCN(c2c(-c3ccc(F)c(C#N)c3)cncc2-c2nc3cccc(C#N)c3[nH]2)C1 [Compound 2-171, 2-{4-[(3S)-3-amino-3-methylpyrrolidin-1-yl]-5-(3-cyano-4-fluorophenyl)pyridin-3-yl}-1H-1,3-benzodiazole-7-carbonitrile]
< 10	–	++ (++=100 to 499)	< 10	10 to 100	–	Cc1ccnc2nc(-c3cncc(-c4cccc(Cl)c4)c3N3CC[C@](C)(N)C3)[nH]c12 [Compound 2-180, (3S)-1-[3-(3-chlorophenyl)-5-{7-methyl-1H-imidazo[4,5-b]pyridin-2-yl}pyridin-4-yl]-3-methylpyrrolidin-3-amine]
10 to 100	–	++ (++=100 to 499)	10 to 100	> 1000	–	Cc1cc(-c2cncc(-c3nc4c(F)cccc4[nH]3)c2N2CC[C@H](N)C2)ccn1 [Compound 2-181, (3S)-1-[5-(4-fluoro-1H-1,3-benzodiazol-2-yl)-2′-methyl-[3,4′-bipyridin]-4-yl]pyrrolidin-3-amine]
–	–	+++ (+++=≥500)	< 10	> 1000	–	N#Cc1cc(F)cc(-c2cncc(-c3nc4cc(F)cc(F)c4[nH]3)c2N2CC[C@H](N)C2)c1 [Compound 2-195, 3-{4-[(3S)-3-aminopyrrolidin-1-yl]-5-(4,6-difluoro-1H-1,3-benzodiazol-2-yl)pyridin-3-yl}-5-fluorobenzonitrile]
10 to 100	–	+ (+=10 to 99)	10 to 100	100 to 1000	–	Cc1cc(F)cc(-c2cncc(-c3nc4ccc(Cl)cc4[nH]3)c2N2CC[C@H](N)C2)c1 [Compound 2-196, (3S)-1-[3-(6-chloro-1H-1,3-benzodiazol-2-yl)-5-(3-fluoro-5-methylphenyl)pyridin-4-yl]pyrrolidin-3-amine]
< 10	–	++ (++=100 to 499)	< 10	100 to 1000	–	Cc1cc(F)cc(-c2cncc(-c3nc4cccc(Cl)c4[nH]3)c2N2CC[C@H](N)C2)c1 [Compound 2-197, (3S)-1-[3-(7-chloro-1H-1,3-benzodiazol-2-yl)-5-(3-fluoro-5-methylphenyl)pyridin-4-yl]pyrrolidin-3-amine]
< 10	–	++ (++=100 to 499)	< 10	> 1000	–	N#Cc1cc(F)cc(-c2cncc(-c3nc4ccc(Cl)cc4[nH]3)c2N2CC[C@H](N)C2)c1 [Compound 2-198, 3-{4-[(3S)-3-aminopyrrolidin-1-yl]-5-(6-chloro-1H-1,3-benzodiazol-2-yl)pyridin-3-yl}-5-fluorobenzonitrile]
100 to 1000	–	+ (+=10 to 99)	100 to 1000	> 1000	–	Cc1cccc(-c2cncc(-c3nc4cccc(C)c4[nH]3)c2N2CC[C@@H](N)C2)c1 [Compound 2-199, (3R)-1-[3-(4-methyl-1H-1,3-benzodiazol-2-yl)-5-(3-methylphenyl)pyridin-4-yl]pyrrolidin-3-amine]
< 10	–	+++ (+++=≥500)	< 10	100 to 1000	–	Cc1ccnc2nc(-c3cncc(-c4cc(F)cc(C#N)c4)c3N3CC[C@](C)(N)C3)[nH]c12 [Compound 2-202, 3-{4-[(3S)-3-amino-3-methylpyrrolidin-1-yl]-5-{7-methyl-1H-imidazo[4,5-b]pyridin-2-yl}pyridin-3-yl}-5-fluorobenzonitrile]
